According to ChEMBL document CHEMBL5715954, “Silencing c-Myc translation as a therapeutic strategy through targeting PI3Kδ and CK1ε in hematological malignancies” (Blood, 2017):

What was measured:
Parameters in all cases: scale not given: the % may be the effect or the level left
[1] = target: T1, Activin receptor type-1B (Homo sapiens) (UniProt P36896); test: Inhibition of human ALK4 assessed as enzyme activity at 1 uM using casein as substrate preincubated for 20 mins followed by [gamma-33P]-ATP addition and measured after 120 mins by radiometric Hot-SpotSM Kinase assay relative to control
T1 sequence (whole entry): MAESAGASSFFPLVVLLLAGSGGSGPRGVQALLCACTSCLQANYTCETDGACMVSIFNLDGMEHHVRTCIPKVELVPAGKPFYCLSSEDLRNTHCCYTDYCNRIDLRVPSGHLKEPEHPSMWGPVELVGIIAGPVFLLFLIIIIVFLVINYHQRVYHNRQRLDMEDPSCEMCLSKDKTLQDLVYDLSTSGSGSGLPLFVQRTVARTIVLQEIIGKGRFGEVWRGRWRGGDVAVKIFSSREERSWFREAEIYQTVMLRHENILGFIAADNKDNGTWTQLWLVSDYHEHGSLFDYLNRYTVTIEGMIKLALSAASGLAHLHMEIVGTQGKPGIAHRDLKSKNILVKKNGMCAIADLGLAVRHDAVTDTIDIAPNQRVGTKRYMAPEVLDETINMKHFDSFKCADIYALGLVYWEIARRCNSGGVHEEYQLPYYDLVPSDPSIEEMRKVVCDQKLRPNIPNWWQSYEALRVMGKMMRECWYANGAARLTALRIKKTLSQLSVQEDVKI

[2] = target: T2, Bone morphogenetic protein receptor type-2 (Homo sapiens) (UniProt Q13873); test: Inhibition of human BMPR2 assessed as enzyme activity at 1 uM using myelin basic protein as substrate preincubated for 20 mins followed by [gamma-33P]-ATP addition and measured after 120 mins by radiometric Hot-SpotSM Kinase assay relative to control
T2 sequence (whole entry): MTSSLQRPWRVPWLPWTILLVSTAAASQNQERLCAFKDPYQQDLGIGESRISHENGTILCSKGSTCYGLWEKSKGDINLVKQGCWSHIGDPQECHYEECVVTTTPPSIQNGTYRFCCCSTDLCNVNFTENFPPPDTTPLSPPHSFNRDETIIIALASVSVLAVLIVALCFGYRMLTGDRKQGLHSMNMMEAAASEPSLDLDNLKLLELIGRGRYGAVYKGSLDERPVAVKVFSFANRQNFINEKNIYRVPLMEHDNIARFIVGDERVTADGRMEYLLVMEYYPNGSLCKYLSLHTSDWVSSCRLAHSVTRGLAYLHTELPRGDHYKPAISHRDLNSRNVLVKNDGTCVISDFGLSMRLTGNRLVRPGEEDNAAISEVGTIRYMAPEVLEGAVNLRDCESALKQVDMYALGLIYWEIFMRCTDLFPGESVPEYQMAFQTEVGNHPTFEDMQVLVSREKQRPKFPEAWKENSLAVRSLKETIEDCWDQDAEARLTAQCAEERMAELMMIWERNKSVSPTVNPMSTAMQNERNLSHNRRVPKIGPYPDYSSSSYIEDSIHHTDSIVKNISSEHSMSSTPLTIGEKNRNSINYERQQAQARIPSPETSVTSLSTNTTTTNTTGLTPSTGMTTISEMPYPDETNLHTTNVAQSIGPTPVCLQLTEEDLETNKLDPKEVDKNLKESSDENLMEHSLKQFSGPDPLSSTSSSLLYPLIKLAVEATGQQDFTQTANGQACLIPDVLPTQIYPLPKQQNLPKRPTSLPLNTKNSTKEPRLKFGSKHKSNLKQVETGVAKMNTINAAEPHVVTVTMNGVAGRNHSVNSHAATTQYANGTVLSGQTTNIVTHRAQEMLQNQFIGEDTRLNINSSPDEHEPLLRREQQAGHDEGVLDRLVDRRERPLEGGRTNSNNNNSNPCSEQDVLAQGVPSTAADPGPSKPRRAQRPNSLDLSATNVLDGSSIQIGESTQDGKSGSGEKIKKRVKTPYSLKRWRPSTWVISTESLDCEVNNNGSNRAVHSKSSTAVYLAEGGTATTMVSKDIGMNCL

[3] = target: T3, Serine/threonine-protein kinase TAO2 (Homo sapiens) (UniProt Q9UL54); test: Inhibition of human TAOK2 assessed as enzyme activity at 1 uM using myelin basic protein as substrate preincubated for 20 mins followed by [gamma-33P]-ATP addition and measured after 120 mins by radiometric Hot-SpotSM Kinase assay relative to control
T3 sequence (whole entry): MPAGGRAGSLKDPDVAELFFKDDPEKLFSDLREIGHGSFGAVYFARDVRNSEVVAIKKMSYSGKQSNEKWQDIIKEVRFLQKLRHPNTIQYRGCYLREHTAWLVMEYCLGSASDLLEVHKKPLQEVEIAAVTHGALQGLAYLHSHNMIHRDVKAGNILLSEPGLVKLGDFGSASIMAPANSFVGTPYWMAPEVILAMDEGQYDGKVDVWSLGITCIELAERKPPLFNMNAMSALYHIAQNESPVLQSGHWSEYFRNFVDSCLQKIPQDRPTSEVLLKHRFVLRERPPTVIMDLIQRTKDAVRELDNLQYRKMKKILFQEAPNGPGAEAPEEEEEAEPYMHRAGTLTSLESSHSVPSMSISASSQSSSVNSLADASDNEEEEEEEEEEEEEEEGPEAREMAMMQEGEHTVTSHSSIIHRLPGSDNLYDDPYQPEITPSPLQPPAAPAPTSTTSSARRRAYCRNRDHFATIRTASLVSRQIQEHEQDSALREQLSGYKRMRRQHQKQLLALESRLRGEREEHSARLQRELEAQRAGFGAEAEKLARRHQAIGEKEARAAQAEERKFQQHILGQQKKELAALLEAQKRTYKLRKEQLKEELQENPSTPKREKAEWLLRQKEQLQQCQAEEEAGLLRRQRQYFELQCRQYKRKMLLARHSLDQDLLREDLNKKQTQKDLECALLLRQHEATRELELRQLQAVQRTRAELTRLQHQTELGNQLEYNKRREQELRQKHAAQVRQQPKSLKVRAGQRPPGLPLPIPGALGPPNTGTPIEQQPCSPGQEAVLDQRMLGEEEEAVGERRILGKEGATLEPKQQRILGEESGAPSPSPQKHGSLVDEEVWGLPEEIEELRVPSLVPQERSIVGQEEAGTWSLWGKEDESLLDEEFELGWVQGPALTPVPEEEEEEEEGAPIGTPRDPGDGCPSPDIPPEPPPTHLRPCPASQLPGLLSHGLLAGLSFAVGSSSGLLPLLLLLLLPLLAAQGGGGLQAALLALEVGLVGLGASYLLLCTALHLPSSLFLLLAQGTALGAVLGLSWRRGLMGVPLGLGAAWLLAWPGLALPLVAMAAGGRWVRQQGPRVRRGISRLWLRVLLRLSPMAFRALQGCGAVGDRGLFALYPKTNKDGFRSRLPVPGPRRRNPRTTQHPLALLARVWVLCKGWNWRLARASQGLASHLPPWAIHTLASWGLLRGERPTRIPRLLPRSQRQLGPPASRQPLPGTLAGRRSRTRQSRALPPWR

Row | SMILES | Activity [1] [%] | Activity [2] [%] | Activity [3] [%]
1 | CC[C@H](Nc1ncnc2[nH]cnc12)c1nc2cccc(F)c2c(=O)n1-c1ccccc1 | 101 | 107 | 96.7
2 | C[C@H](Nc1ncnc2nc[nH]c12)c1cc2cccc(Cl)c2c(=O)n1-c1ccccc1 | 101 | 103 | 93.3
3 | CC(C)Oc1ccc(-c2nn([C@@H](C)c3oc4ccc(F)cc4c(=O)c3-c3cccc(F)c3)c3ncnc(N)c23)cc1F [UMBRALISIB] | 106 | 107 | 97.3
